Results: PMC7815789, “Degradation of complex arabinoxylans by human colonic Bacteroidetes” (Nature Communications, 2021)

Key:
Assay type in all cases: biochemical
[1] = molecular target: T1, BACINT_01042-GH3 (Bi1042-GH3) (Bacteroides intestinalis, UniProt B3C978); test: xylose release, HPAEC-PAD; details: pH […] °C, […] h, […] enzyme
T1 sequence (B3C978 19-862): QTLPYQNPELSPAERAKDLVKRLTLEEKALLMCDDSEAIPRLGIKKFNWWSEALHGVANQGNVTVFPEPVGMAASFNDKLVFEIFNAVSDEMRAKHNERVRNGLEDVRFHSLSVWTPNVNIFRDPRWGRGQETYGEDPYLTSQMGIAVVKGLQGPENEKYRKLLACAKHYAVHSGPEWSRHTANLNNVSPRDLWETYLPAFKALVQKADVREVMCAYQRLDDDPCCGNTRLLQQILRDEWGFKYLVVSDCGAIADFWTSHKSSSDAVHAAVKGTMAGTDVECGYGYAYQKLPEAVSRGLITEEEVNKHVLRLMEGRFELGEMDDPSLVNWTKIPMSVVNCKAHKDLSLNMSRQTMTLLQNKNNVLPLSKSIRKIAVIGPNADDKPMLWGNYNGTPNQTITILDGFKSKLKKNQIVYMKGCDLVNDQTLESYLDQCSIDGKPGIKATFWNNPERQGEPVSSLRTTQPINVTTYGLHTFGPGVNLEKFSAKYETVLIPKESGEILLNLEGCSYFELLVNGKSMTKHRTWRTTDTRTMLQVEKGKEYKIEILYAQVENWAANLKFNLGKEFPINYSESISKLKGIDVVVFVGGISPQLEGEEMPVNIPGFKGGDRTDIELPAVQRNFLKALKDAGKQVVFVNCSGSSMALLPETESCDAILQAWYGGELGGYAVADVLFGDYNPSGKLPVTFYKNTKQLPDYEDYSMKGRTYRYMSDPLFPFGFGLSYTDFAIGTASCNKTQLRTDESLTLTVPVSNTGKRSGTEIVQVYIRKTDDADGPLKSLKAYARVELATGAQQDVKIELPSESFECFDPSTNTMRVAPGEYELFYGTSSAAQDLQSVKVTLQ

[2] = molecular target: T2, BACINT_01038-CE6/CE1 (Bi1038-CE6/CE1) (Bacteroides intestinalis, UniProt B3C974); test: pNP release at […] nm; details: […] substrate, […] enzyme, […] MOPS pH […] °C
T2 construct: two modules (CE6, CE1)

[3] = molecular target: T3, BACINT_01039-CE1 (Bi1039-CE1) (Bacteroides intestinalis, UniProt B3C975); test: pNP release at […] nm; details: 1 mM substrate, 50 nM enzyme, 0.1 M MOPS pH 7.5, 37 °C
T3 construct: dimer; crystal structure residues 25-382, esterase domain 126-382

[4] = molecular target: T4, BACINT_01033-CE1 (Bi1033-CE1) (Bacteroides intestinalis, UniProt B3C969); test: ferulic acid release, HPLC-DAD; details: 200 uM substrate, 50 nM enzyme, 50 mM sodium citrate, 150 mM NaCl, pH 6.5, 37 °C, 10 min
T4 construct: dimer; N-terminal Ig-like domain, esterase domain residues 126-383

[5] = molecular target: T2, BACINT_01038-CE6/CE1 (Bi1038-CE6/CE1); test: ferulic acid release, HPLC-DAD; details: […] substrate, […] enzyme, […] sodium citrate, […] NaCl, pH […] °C, […] min

T2 sequence (B3C974 59-680): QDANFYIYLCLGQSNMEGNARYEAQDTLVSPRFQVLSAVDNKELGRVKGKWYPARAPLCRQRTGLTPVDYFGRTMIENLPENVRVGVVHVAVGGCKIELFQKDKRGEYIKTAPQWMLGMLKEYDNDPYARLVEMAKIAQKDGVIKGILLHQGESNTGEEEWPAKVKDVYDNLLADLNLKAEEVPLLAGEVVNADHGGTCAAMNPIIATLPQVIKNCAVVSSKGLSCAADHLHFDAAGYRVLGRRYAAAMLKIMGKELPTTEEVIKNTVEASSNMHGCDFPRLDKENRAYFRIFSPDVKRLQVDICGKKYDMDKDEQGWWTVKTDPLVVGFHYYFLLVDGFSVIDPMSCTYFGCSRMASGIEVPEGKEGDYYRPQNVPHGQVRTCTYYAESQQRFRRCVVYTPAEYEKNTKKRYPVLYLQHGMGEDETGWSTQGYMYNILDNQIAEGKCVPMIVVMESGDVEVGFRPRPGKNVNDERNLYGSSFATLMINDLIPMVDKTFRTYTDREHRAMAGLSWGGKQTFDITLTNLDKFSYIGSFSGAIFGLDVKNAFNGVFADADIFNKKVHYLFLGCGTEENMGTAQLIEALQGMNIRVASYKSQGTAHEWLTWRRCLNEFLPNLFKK
T3 sequence (B3C975 25-382): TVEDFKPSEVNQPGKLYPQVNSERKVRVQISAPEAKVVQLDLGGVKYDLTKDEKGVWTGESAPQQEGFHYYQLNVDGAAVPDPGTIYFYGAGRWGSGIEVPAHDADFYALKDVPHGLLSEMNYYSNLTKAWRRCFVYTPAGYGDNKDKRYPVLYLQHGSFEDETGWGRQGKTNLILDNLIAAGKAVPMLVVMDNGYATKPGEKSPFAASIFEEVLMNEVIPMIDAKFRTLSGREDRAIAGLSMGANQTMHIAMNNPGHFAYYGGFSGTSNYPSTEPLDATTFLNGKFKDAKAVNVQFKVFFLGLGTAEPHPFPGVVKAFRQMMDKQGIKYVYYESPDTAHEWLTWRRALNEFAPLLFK
T4 sequence (B3C969 24-387): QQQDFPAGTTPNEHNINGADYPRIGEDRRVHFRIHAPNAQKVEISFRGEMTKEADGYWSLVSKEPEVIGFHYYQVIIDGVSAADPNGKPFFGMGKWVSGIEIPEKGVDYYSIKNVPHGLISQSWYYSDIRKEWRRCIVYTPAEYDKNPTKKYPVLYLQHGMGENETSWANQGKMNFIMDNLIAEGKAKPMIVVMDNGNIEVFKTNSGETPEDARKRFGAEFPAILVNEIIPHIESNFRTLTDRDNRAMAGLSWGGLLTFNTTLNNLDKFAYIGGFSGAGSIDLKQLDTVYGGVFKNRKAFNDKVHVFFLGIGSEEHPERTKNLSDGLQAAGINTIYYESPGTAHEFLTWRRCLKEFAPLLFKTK

Compound: OC1OC[C@@H](O[C@@H]2OC[C@@H](O[C@@H]3OC[C@@H](O)[C@H](O)[C@H]3O)[C@H](O)[C@H]2O)[C@H](O)[C@H]1O (stereo partly drawn) [X3, xylotriose]
- xylose release, HPAEC-PAD [1]: Bi1042-GH3 cleaves xylo-oligosaccharides to xylose or X1

Compound: CC(=O)Oc1ccc([N+](=O)[O-])cc1 [pNP acetate]
- pNP release at 400 nm [2]: activities on the synthetic substrates were from Bi1040-FAE and Bi1038-CE6/CE1, respectively
- pNP release at 400 nm [3]: activity of the wild-type Bi1039-CE1, observed with pNP acetate as the substrate

Compound: COc1cc(/C=C/C(=O)OC[C@@H]2OC(O)[C@H](O)[C@H]2O)ccc1O (stereo partly drawn) [FA, feruloylated monosaccharide (FA)]
- ferulic acid release, HPLC-DAD [4]: exhibits low ferulic acid cleavage activity on feruloylated monosaccharide (FA)

Compound: COc1cc(/C=C/C(=O)OC[C@@H]2O[C@@H](O[C@@H]3[C@@H](O)[C@H](O[C@@H]4COC(O)[C@H](O)[C@H]4O)OC[C@H]3O)[C@H](O)[C@H]2O)ccc1O (stereo partly drawn) [FAXX, feruloylated trisaccharide (FAXX)]
- ferulic acid release, HPLC-DAD [5]: showed some activity on both FA and FAXX

Compound: OC1OC[C@@H](O[C@@H]2OC[C@@H](O)[C@H](O)[C@H]2O)[C@H](O)[C@H]1O (stereo partly drawn) [X2, xylobiose]
- xylose release, HPAEC-PAD [1]: Bi1042-GH3 cleaves xylo-oligosaccharides to xylose or X1
